Data on three compounds can be found in patent US20050008558A1, “Fullerene derivatives and processes for producing the same” (Eiichi NAKAMURA, priority 2003, published 2005).

The structures appear in SMILES notation. ≈ marks a conversion by molar mass, not a printed value.

Data set [1] in a line: Oxidation test: toluene solutions allowed to stand in air at room temperature, HPLC peak area ratio. The conditions noted are these: for Peak area ratio (%) of starting compound to whole peak area: toluene solution 0.33 mg/mL, in air, HPLC UV 290 nm, time 0 day (initial); for Change in peak area ratio on preservation as a solution (in words): long period of time. The format is physicochemical. The source says:
The stability in air of the fullerene derivatives of the present invention may be confirmed, for example, by analyzing the change in quality thereof with time by HPLC. More specifically, the stability in air can be determined as follows. That is, a toluene solution of the fullerene derivatives of the present invention which is allowed to stand in air at room temperature, is subjected to HPLC using an octadecyl-bonded silica gel column (hereinafter referred to merely as “ODS” column), an eluent composed of toluene and methanol and a UV wavelength of 290 nm to measure the rate of reduction in area ratio of a peak attributed to the fullerene derivatives to whole peaks as observed. Concretely, it can be evaluated by the stability in air of solution of fullerene derivative according to the present invention to the solution of same fullerene derivative to the present one except for having a hydrogen atom on cyclopentadiene ring of fullerene skeleton, for example, a C60Ph5CH3 solution to a C60Ph5H solution (Ph represents a phenyl group). For example, the rate of reduction in peak area ratio of the fullerene derivatives according to the present invention is usually 1/20 or lower, preferably 1/100 or lower than that of the case where one having a hydrogen atom on cyclopentadiene ring, namely C60Ph5H, is used under the same conditions.
90 mL of a toluene solution of C60Ph5H (0.33 mg/mL) and 90 mL of a toluene solution of C60Ph5Me obtained in Example 10 (0.33 mg/mL) were respectively prepared and allowed to stand in air at room temperature. The prepared solutions were sampled in an amount of 0.5 mL for each every several days, and subjected to HPLC analysis to examine the change in quality thereof with time. The HPLC analysis conditions were ODS; column size: 150 mm×4.6 mmφ; eluent: toluene/methanol=4/6; flow rate: 1.0 mL/min; detector used: UV 290 nm.

Data set [2] is described as follows: Solubility in organic solvents at 25° C.
Where [3] appears, read: toluene solution in air, time 1 day.
[4] abbreviates: toluene solution in air, time 2 days.
Setting [5] is: toluene solution in air, time 6 days.
Where [6] appears, read: toluene solution in air, time 8 days.
Where [7] appears, read: toluene solution in air, time 9 days.
The mark [8] stands for this setting: toluene solution in air, time 14 days.
Where [9] appears, read: toluene solution in air, time 15 days.
[10] abbreviates: toluene solution in air, time 16 days.
Where [11] appears, read: toluene solution in air, time 20 days.
The mark [12] stands for this setting: toluene solution in air, time 22 days.
Setting [13] is: toluene solution in air, time 23 days.
Where [14] appears, read: toluene solution in air, time 63 days.

On to `c1ccc(C23C4=C5C6C7=C4C4(c8ccccc8)c8c2c2c9c3c3c%10c%11c(c%12c%13c%14c(c%15c%16c%17c(c4c4c8c8c2c2c%18c9c%10c9c%10c%11c%13c%11c%13c%14c%16c%14c%16c%17c4c4c8c2c2c(c%189)c(c%10%11)c(c%14%13)c2c4%16)C7%15c2ccccc2)C%126c2ccccc2)C53c2ccccc2)cc1` (stereo not shown) [Example C60Ph5H], for which the “Peak area ratio (%) of starting compound to whole peak area” value in data set [1] is on record as 98.5%. The “Rate of reduction of the peak area ratio” value in data set [1] (toluene solution in air) is “about 0.45 % per day”. In addition, in data set [1] (toluene solution in air), the “Change in peak area ratio on preservation as a solution (in words)” value is reported as “considerable reduction in peak area ratio”. Besides, the “Peak area ratio (%)” value is listed as 97.5% in data set [1] (setting [3]); 96.7% in data set [1] (setting [4]); 95.0% in data set [1] (toluene solution in air, time 5 days); 94.4% in data set [1] (setting [5]); 93.2% in data set [1] (setting [6]); 92.9% in data set [1] (setting [7]). In addition, the “Peak area ratio (%)” value in data set [1] (toluene solution in air, time 12 days) is on record as 92.0%; in data set [1] (toluene solution in air, time 13 days) it was 91.7%; in data set [1] (setting [8]), 90.6%; in data set [1] (setting [9]), 90.1%; in data set [1] (setting [10]) it was 89.6%; in data set [1] (setting [11]) it was 88.6%. Besides, the “Peak area ratio (%)” value in data set [1] (setting [12]) is on record as 87.4%; in data set [1] (setting [13]) it was 87.4%; in data set [1] (toluene solution in air, time 26 days), 85.9%; in data set [1] (toluene solution in air, time 30 days), 84.3%; in data set [1] (toluene solution in air, time 33 days), 81.5%; in data set [1] (toluene solution in air, time 37 days), 80.4%. Further, the “Peak area ratio (%)” value in data set [1] (toluene solution in air, time 43 days) was 78.9%; in data set [1] (toluene solution in air, time 51 days) it was 74.1%; in data set [1] (toluene solution in air, time 58 days), 71.4%; in data set [1] (setting [14]), 70.1%; in data set [1] (toluene solution in air, time 65 days) it was 70.1%.
Turning to `CCOC(=O)CCCC12C3=C4C5=C1C1(C)c6c7c8c9c(c%10c%11c%12c(c%13c%14c%15c(c%16c%17c%18c(c1c1c6c6c8c8c%19c9c%11c9c%11c%12c%14c%12c%14c%15c%17c%15c%17c%18c1c1c6c8c6c(c9%19)c(c%11%12)c(c%14%15)c6c1%17)C%162C)C3%13C)C4%10C)C57C` (stereo not shown) [C60Me5—(CH2)3CO2Et, 1-(3-(ethoxycarbonyl)propyl)-6,9,12,15,18-pentamethyl-1,6,9,12,15,18-hexahydro-(C60-Ih)[5,6]fullerene], the “Solubility in chloroform (CHCl3)” value in data set [2] (CHCl3, 25° C.) worked out at 35.9 mg/mL (≈ 39.4 mM). In data set [2] (DMF, 25° C.), the “Solubility in N,N-dimethylformamide (DMF)” value came out at 15.4 mg/mL (≈ 16.9 mM). Also, the “Solubility in ethyl acetate (EtOAc)” value in data set [2] (EtOAc, 25° C.) came out at 3.9 mg/mL (≈ 4.28 mM). Besides, the “Solubility in tetrahydrofuran (THF)” value in data set [2] (THF, 25° C.) is listed as 103.0 mg/mL (≈ 113 mM).
In the case of `CC12C3=C4C5=C1C1(c6ccccc6)c6c7c8c9c(c%10c%11c%12c(c%13c%14c%15c(c%16c%17c%18c(c1c1c6c6c8c8c%19c9c%11c9c%11c%12c%14c%12c%14c%15c%17c%15c%17c%18c1c1c6c8c6c(c9%19)c(c%11%12)c(c%14%15)c6c1%17)C%162c1ccccc1)C3%13c1ccccc1)C4%10c1ccccc1)C57c1ccccc1` (stereo not shown) [Example C60Ph5Me, 1-methyl-6,9,12,15,18-pentaphenyl-1,6,9,12,15,18-hexahydro-(C60-Ih)[5,6]fullerene], in data set [1], the “Peak area ratio (%) of starting compound to whole peak area” value came to 98.8%. The “Change in peak area ratio on preservation as a solution (in words)” value in data set [1] (toluene solution in air) was “kept substantially unchanged”. Also, the “Peak area ratio (%)” value in data set [1] (setting [3]) was determined as 98.4%; in data set [1] (setting [4]) it was 98.9%; in data set [1] (toluene solution in air, time 3 days), 98.8%; in data set [1] (setting [5]), 98.4%; in data set [1] (toluene solution in air, time 7 days), 98.3%; in data set [1] (setting [6]), 98.7%. In addition, the “Peak area ratio (%)” value in data set [1] (setting [7]) amounted to 98.5%; in data set [1] (toluene solution in air, time 10 days), 98.0%; in data set [1] (setting [8]), 98.3%; in data set [1] (setting [9]), 98.9%; in data set [1] (setting [10]), 98.4%; in data set [1] (setting [11]) it was 98.4%. The “Peak area ratio (%)” value amounted to 98.4% in data set [1] (toluene solution in air, time 21 days); 97.1% in data set [1] (setting [12]); 97.4% in data set [1] (setting [13]); 98.5% in data set [1] (toluene solution in air, time 25 days); 97.9% in data set [1] (toluene solution in air, time 31 days); 98.2% in data set [1] (toluene solution in air, time 38 days). In addition, the “Peak area ratio (%)” value was 98.1% in data set [1] (toluene solution in air, time 48 days) and 98.3% in data set [1] (setting [14]).
